Active and inactive are the calls of the source. The rule behind the calls is not given here.
Key:
[1] = Antiplatelet activity in human platelet-rich plasma assessed as inhibition of collagen-induced platelet aggregation at 10 uM treated for 5 mins prior to collagen challenge for 5 mins by turbidimetric method; type: functional
Mus musculus [2] = assay: Antithrombotic activity in mouse assessed as protection against collagen-epinephrine-induced pulmonary thromboembolism at 30 uM/kg, po administered 60 mins prior to thrombotic challenge; type: functional
[3] = Antiplatelet activity in human platelet-rich plasma assessed as inhibition of collagen-induced platelet aggregation treated for 5 mins prior to collagen challenge for 5 mins by turbidimetric method; type: functional, cell-free
Platelet [4] = assay: Antiplatelet activity in human platelet-rich plasma assessed as inhibition of TRAP-induced platelet aggregation treated for 5 mins prior to TRAP challenge for 5 mins by turbidimetric method; type: functional, cell-free
[5] = Antiplatelet activity in human platelet-rich plasma assessed as inhibition of arachidonic acid-induced platelet aggregation treated for 5 mins prior to arachidonic acid challenge for 5 mins by turbidimetric method; type: functional, cell-free
Platelet [6] = assay: Antiplatelet activity in human platelet-rich plasma assessed as inhibition of ristocetin-induced platelet aggregation treated for 5 mins prior to ristocetin challenge for 5 mins by turbidimetric method; type: functional, cell-free
[7] = Antiplatelet activity in human platelet-rich plasma assessed as inhibition of U46619-induced platelet aggregation treated for 5 mins prior to U46619 challenge for 5 mins by turbidimetric method; type: functional, cell-free
Mus musculus [8] = assay: Prolongation of bleeding time in mouse at 30 uM/kg, po administered as single dose by tail excision method; type: ADME, organism-based; conditions: in vivo
Platelet [9] = assay: Antiplatelet activity in human platelet-rich plasma assessed as inhibition of ADP-induced platelet aggregation treated for 5 mins prior to ADP challenge for 5 mins by turbidimetric method; type: functional, cell-free
[10] = Antiplatelet activity in human platelet-rich plasma assessed as inhibition of collagen-induced platelet aggregation at 30 uM treated for 5 mins prior to collagen challenge for 5 mins by turbidimetric method; type: functional

Structure (SMILES) | inhibition at 10 µM [1] [%] | Activity (Mus musculus [2]) [%] | also measured
COc1ccc(CN2C(=O)CC[C@H]2C(=O)N2CCC[C@@H](CNC(=O)OC(C)(C)C)C2)cc1 | 7 | 20 | 
O=C([C@@H]1CCC(=O)N1Cc1ccccc1)N1CCN(c2ccccc2F)CC1 |  | 50 | inhibition (INH) [3]: 57%
CC(C)(C)OC(=O)NC[C@H]1CCCN(C(=O)[C@@H]2CCC(=O)N2Cc2c(Cl)cccc2Cl)C1 | 22 | 10 | 
CC(C)(C)OC(=O)NC[C@@H]1CCCN(C(=O)[C@@H]2CCC(=O)N2Cc2cccc(C#N)c2)C1 | 6 | 30 | 
CC1OCC(=O)N(Cc2ccccc2)[C@@H]1C(=O)N1CCC[C@@H](CNC(=O)OC(C)(C)C)C1 (stereo partly drawn) |  | 20 | 
CC(C)(C)OC(=O)NC[C@@H]1CCCN(C(=O)[C@@H]2CCC(=O)N2Cc2ccc3ccccc3c2)C1 | 29 | 30 | 
Cc1ccc(CN2C(=O)COC(C)[C@H]2C(=O)N2CCC[C@@H](CNC(=O)OC(C)(C)C)C2)cc1 (stereo partly drawn) |  | 20 | 
Cc1ccc(CN2CSC[C@H]2C(=O)N2CCC[C@H](CNC(=O)OC(C)(C)C)C2)cc1 |  | 60 | inhibition (Platelet [4]): inactive; inhibition (INH) [3]: 87%; IC50 ([3]; Homo sapiens, Platelet, Plasma): 3.3 µM; inhibition (INH) [5]: 93%; IC50 ([5]; Homo sapiens, Platelet, Plasma): 6 µM; inhibition (Platelet [6]): inactive; inhibition (INH) [7]: 100%; IC50 ([7]; Homo sapiens, Platelet, Plasma): 2.7 µM; Activity (Mus musculus [8]): 72%; inhibition (Platelet [9]): inactive
CC(C)(C)OC(=O)NC[C@H]1CCCN(C(=O)[C@@H]2CCC(=O)N2Cc2ccc(C#N)cc2)C1 | 25 | 10 | 
CC(C)(C)OC(=O)NC[C@@H]1CCCN(C(=O)[C@@H]2CCC(=O)N2Cc2ccc(Cl)c(Cl)c2)C1 | 27 | 20 | 
CC(C)(C)OC(=O)NC[C@@H]1CCCN(C(=O)[C@@H]2CCC(=O)N2Cc2ccc(Cl)cc2)C1 | 35 | 50 | 
CC(C)(C)OC(=O)NC[C@H]1CCCN(C(=O)[C@@H]2CCC(=O)N2Cc2ccc(Cl)c(Cl)c2)C1 | 24 | 30 | 
Cc1ccc(CN2C(=O)CC[C@H]2C(=O)N2CCC[C@@H](CNS(=O)(=O)c3ccc(C)cc3)C2)cc1 |  | 40 | 
Cc1ccc(CN2C(=O)CSCC2C(=O)N2CCC[C@@H](CNC(=O)OC(C)(C)C)C2)cc1 (single isomer, unassigned) | 15 | 30 | 
Cc1ccc(CN2C(=O)CC[C@H]2C(=O)N2CCC[C@@H](CNC(=O)c3ccc(C)cc3)C2)cc1 |  | 30 | 
Cc1ccc(CN2C(=O)CC[C@H]2C(=O)N2CCC[C@@H](CNC(=O)[C@@H](NC(=O)OCc3ccccc3)C(C)C)C2)cc1 |  | 10 | 
CC(C)(C)OC(=O)NCC1CCN(C(=O)[C@@H]2CCC(=O)N2Cc2c(Cl)cccc2Cl)CC1 |  | 70 | inhibition at 30 µM [10]: 80%; Activity (Mus musculus [8]): 50%
Cc1cccc(CN2C(=O)CC[C@H]2C(=O)N2CCC[C@H](CNC(=O)OC(C)(C)C)C2)c1 | 13 | 70 | 
CC(C)(C)OC(=O)NC[C@@H]1CCCN(C(=O)[C@@H]2CCC(=O)N2Cc2ccc(Br)cc2)C1 | 20 | 40 | 
O=C([C@@H]1CCC(=O)N1Cc1ccccc1)N1CCN(c2ccccc2Cl)CC1 |  | 40 | inhibition (INH) [3]: 74%
COc1ccccc1CN1C(=O)CC[C@H]1C(=O)N1CCC[C@H](CNC(=O)OC(C)(C)C)C1 | 22 | 50 | 
CC(C)(C)C(=O)NCC1CCCN(C(=O)[C@@H]2CCC(=O)N2Cc2ccccc2)C1 (mixture of isomers) |  | 50 | inhibition at 30 µM [10]: 2.4%; Activity (Mus musculus [8]): 41%
Cc1ccc(C(=O)N2CSC[C@H]2C(=O)N2CCC[C@@H](CNC(=O)OC(C)(C)C)C2)cc1 |  | 10 | Activity (Mus musculus [8]): 8%
COc1ccccc1CN1C(=O)CC[C@H]1C(=O)N1CCC[C@@H](CNC(=O)OC(C)(C)C)C1 | 32 | 40 | 
CC(C)(C)OC(=O)NCC1CCCN(C(=O)[C@@H]2CCC(=O)N2C/C=C/c2ccccc2)C1 (mixture of isomers) |  | 30 | inhibition at 30 µM [10]: 42%; Activity (Mus musculus [8]): 0%
Cc1ccc(CN2C(=O)CCC[C@H]2C(=O)N2CCC[C@H](CNC(=O)OC(C)(C)C)C2)cc1 | 22 | 50 | 
CC(C)(C)OC(=O)NC[C@H]1CCCN(C(=O)[C@@H]2CCC(=O)N2Cc2ccccc2)C1 | 17 | 50 | 
CC(C)(C)OC(=O)NC[C@H]1CCCN(C(=O)[C@@H]2CCC(=O)N2Cc2ccc3ccccc3c2)C1 | 22 | 22.3 | 

Structure (SMILES) | inhibition at 10 µM [1] [%] | Activity (Mus musculus [2]) [%] | also measured
CC(C)(C)OC(=O)NC[C@H]1CCCN(C(=O)[C@@H]2CCC(=O)N2Cc2cccc(C#N)c2)C1 | 19 | 20 | 
Cc1ccc(CN2C(=O)COC(C)[C@H]2C(=O)N2CCC[C@H](CNC(=O)OC(C)(C)C)C2)cc1 (stereo partly drawn) |  | 30 | 
Cc1ccc(CN2C(=O)CSC[C@H]2C(=O)N2CCCC(CNC(=O)OC(C)(C)C)C2)cc1 (single isomer, unassigned) | 18 | 30 | 
CC(C)(C)OC(=O)NC[C@@H]1CCCN(C(=O)[C@@H]2CCC(=O)N2Cc2ccccc2)C1 | 26 | 20 | 
CC(C)(C)OC(=O)NCC1CCCN(C(=O)[C@@H]2CCC(=O)N2Cc2ccccc2Cl)C1 (mixture of isomers) |  | 70 | inhibition at 30 µM [10]: 15%; Activity (Mus musculus [8]): 60%
CC(C)(C)OC(=O)NC[C@@H]1CCCN(C(=O)[C@@H]2CCC(=O)N2Cc2c(Cl)cccc2Cl)C1 | 24 | 20 | 
Cc1ccc(CN2C(=O)OC[C@H]2C(=O)N2CCC[C@H](CNC(=O)OC(C)(C)C)C2)cc1 |  | 20 | Activity (Mus musculus [8]): 10%
CC1OCC(=O)N(Cc2ccccc2)[C@@H]1C(=O)N1CCC[C@H](CNC(=O)OC(C)(C)C)C1 (stereo partly drawn) |  | 20 | 
COc1cccc(CN2C(=O)CC[C@H]2C(=O)N2CCC[C@H](CNC(=O)OC(C)(C)C)C2)c1 | 6 | 22.3 | 
Cc1cccc(CN2C(=O)CC[C@H]2C(=O)N2CCC[C@@H](CNC(=O)OC(C)(C)C)C2)c1 | 28 | 30 | 
COc1ccc(CN2C(=O)CC[C@H]2C(=O)N2CCC[C@H](CNC(=O)OC(C)(C)C)C2)cc1 | 25 | 20 | 
CC(C)(C)OC(=O)NCC1CCCN(C(=O)[C@@H]2CCC(=O)N2Cc2ccc(Br)cc2)C1 (mixture of isomers) |  | 67 | inhibition at 30 µM [10]: 66.4%; Activity (Mus musculus [8]): 60%
Cc1ccc(CN2C(=O)OC[C@H]2C(=O)N2CCC[C@@H](CNC(=O)OC(C)(C)C)C2)cc1 |  | 30 | Activity (Mus musculus [8]): 54%
Cc1ccc(CN2C(=O)CCC[C@H]2C(=O)N2CCC[C@@H](CNC(=O)OC(C)(C)C)C2)cc1 | 18 | 40 | 
CC(C)(C)OC(=O)NC[C@H]1CCCN(C(=O)[C@@H]2CCC(=O)N2Cc2ccc(Br)cc2)C1 | 4 | 50 | 
CC(C)(C)OC(=O)NC[C@H]1CCCN(C(=O)[C@@H]2CCC(=O)N2Cc2ccc(Cl)cc2)C1 | 21 | 15 | 
O=C(CNC(=O)OCc1ccccc1)NCC1CCCN(C(=O)[C@@H]2CCC(=O)N2Cc2ccccc2)C1 (mixture of isomers) |  | 40 | inhibition at 30 µM [10]: 12%; Activity (Mus musculus [8]): 13%
CC(C)(C)OC(=O)NC[C@@H]1CCCN(C(=O)[C@@H]2CCC(=O)N2Cc2ccc(C#N)cc2)C1 | 8 | 60 | 
COc1cccc(CN2C(=O)CC[C@H]2C(=O)N2CCC[C@@H](CNC(=O)OC(C)(C)C)C2)c1 | 34 |  | 
O=C(NCC1CCN(C(=O)[C@@H]2CCC(=O)N2Cc2ccc(Br)cc2)CC1)OCc1ccccc1 |  | 70 | inhibition at 30 µM [10]: 11%; Activity (Mus musculus [8]): 25%
Cc1ccc(CN2C(=O)CC[C@H]2C(=O)N2CCC[C@@H](CNC(=O)[C@H](CC(C)C)NC(=O)OCc3ccccc3)C2)cc1 |  | 30 | 
Cc1ccc(C(=O)N2CSC[C@H]2C(=O)N2CCC[C@H](CNC(=O)OC(C)(C)C)C2)cc1 |  | 40 | Activity (Mus musculus [8]): 50%
CC(C)(C)OC(=O)NC[C@H]1CCCN(C(=O)[C@@H]2CCC(=O)N2Cc2ccccc2Br)C1 | 6 | 50 | 
CC(C)(C)OC(=O)NC[C@@H]1CCCN(C(=O)[C@@H]2CCC(=O)N2Cc2ccccc2Br)C1 | 27 | 50 | 
Cc1ccc(CN2C(=O)CC[C@H]2C(=O)N2CCC[C@@H](CNC(=O)[C@H](Cc3ccccc3)NC(=O)OCc3ccccc3)C2)cc1 |  | 30 | 
Cc1ccc(S(=O)(=O)NCC2CCCN(C(=O)[C@@H]3CCC(=O)N3Cc3ccccc3)C2)cc1 (mixture of isomers) |  | 25 | inhibition at 30 µM [10]: 72%; Activity (Mus musculus [8]): 0%
CC(C)(C)OC(=O)NCC1CCN(C(=O)[C@@H]2CCC(=O)N2Cc2ccc(C#N)cc2)CC1 |  | 40 | inhibition at 30 µM [10]: 34%; Activity (Mus musculus [8]): 0%

— ChEMBL document CHEMBL3259687, “Synthesis and identification of chiral aminomethylpiperidine carboxamides as inhibitor of collagen induced platelet activation” (Eur J Med Chem, 2014)
